We go through 6 compounds from US20260256136A1, “STABILIZATION OF ALDEHYDES AND/OR AN ALCOHOLS” (priority 2022, published 2026).

Where two headings read alike, the source gives them in different places.

Series [1] can be described thus: Storage test of aldehyde mixture containing 4-hydroxy-TEMPO and 10 ppm Copper with additive (Example 3). The settings on record: 10 ppm Copper; for Z11-16:OH / Z10-15:Ald / 16:Acid / Z9-16:Ald / 16:Ald / Z11-16:Ald: after 55 C 14 days without cap; for Z11-16:OH: before test 2.16, blank 1.44; for Z10-15:Ald: before test 2.61, blank 2.72; for 16:Acid: before test 3.01, blank 7.94; for Z9-16:Ald: before test 5.33, blank 3.91; for 16:Ald: before test 8.16, blank 6.48; for Z11-16:Ald: before test 74.98, blank 58.18; for suppressing acid formation and degradation of the aldehydes: 55 C 14 days.
Description: To a mixture of aldehydes containing; 4-hydroxy-TEMPO (4-hydroxy-2,2,6,6-tetramethylpiperidin-1-oxyl), (Z)-10-pentenenal, (Z)-9-hexadecenal, (Z)-11-hexadecenal, hexadecanal, (Z)-11-hexadecen-1-ol (Z)-11-hexadecenoic acid and 10 ppm Copper in the composition listed in table 3 below was added up to 1% of an additive in table below. The mixture was thoroughly mixed and heated without cap in an oven at 55 C for 14 days.

Series [2] can be described thus: Storage test of aldehyde mixture containing 4-hydroxy-TEMPO with additive (Example 4). The series is classed as physicochemical. Particulars: for Heptane / Z11-16:OH / 16:Acid / OH tempo / Z9-16:Ald / 15-1:Ald / 16:Ald / Z11-16:Ald: after 55° C. 14 days without cap; for Heptane: before test 0.04, without additive 0.04; for Z11-16:OH: before test 0.27, without additive 0.06; for 16:Acid: before test 1.05, without additive 6.14; for OH tempo: before test 1.19, without additive 1.11; for Z9-16:Ald: before test 5.09, without additive 3.71; for 15-1:Ald: before test 7.27, without additive 5.83; for 16:Ald: before test 8.41, without additive 6.64; for Z11-16:Ald: before test 75.31, without additive 57.21, in % (unit assumed).
Description: To a mixture of aldehydes containing; 4-hydroxy-TEMPO (4-hydroxy-2,2,6,6-tetramethylpiperidin-1-oxyl), (Z)-10-pentenenal, (Z)-9-hexadecenal, (Z)-11-hexadecenal, hexadecanal, (Z)-11-hexadecen-1-ol and (Z)-11-hexadecenoic acid in the composition listed in table 4 below was added up to 1% of an additive in table below. The mixture was thoroughly mixed and heated without cap in an oven at 55° C. for 14 days.

The nature of series [3]: Accelerated storage test of aldehyde mixture with additive, 10 ppm Cu (Example 2). The protocol:
The term “accelerated storage test” as used herein refers to a well known protocol for investigating the stability of a particular composition. The protocol is described in for example the memorandum dated 16 Nov. 2012 from The United States Environmental Protection Agency Washington, D.C. 20460 with the subject title “Accelerated Storage Stability and Corrosion Characteristics Study Protocol”. The protocol evaluates product stability at 54° C.±2° C. for 14 days.

The nature of series [4]: Accelerated storage test of aldehyde mixture with additive, 40 ppm Cu (Example 1). The series is classed as physicochemical.
Description: To a mixture of aldehydes containing; (Z)-9-hexadecenal, (Z)-11-hexadecenal, hexadecanal, (Z)-11-hexadecen-1-ol, (Z)-11-hexadecenoic acid and 40 ppm Cu was added an additive as indicated in table 1 below. The mixture was thoroughly mixed and heated without cap in an oven at 55° C. for 14 days as an accelerated storage test.

Take `SC1=NCCS1` [2-thiazoline-2-thiol]: in series [1], the “Z11-16:OH” value was determined as 2.18, the “Z10-15:Ald” value came to 2.48, the “16:Acid” value was 2.74 and the “Z9-16:Ald” value is given as 5.06. For the same compound, in series [1], the “16:Ald” value was 8.21 and the “Z11-16:Ald” value worked out at 75.24. In addition, in series [2], the “suppressing acid formation and/or degradation of the aldehydes” value is “particularly efficient at suppressing acid formation and/or degradation of the aldehydes”, the Heptane is on record as 0.04, the “Z11-16:OH” value is 0.00 and the “16:Acid” value was determined as 1.69. In addition, in series [2], the OH tempo turned out to be 0.83, the “Z9-16:Ald” value came out at 4.64, the “15-1:Ald” value came out at 6.26 and the “16:Ald” value is on record as 8.08. Further, the “Z11-16:Ald” value in series [2] stood at 68.79.

Take `Nc1nnc(S)s1` [5-Amino-1,3,4-Thiadiazole-2-thiol]: in series [1], the “Z11-16:OH” value turned out to be 2.11, the “Z10-15:Ald” value was found to be 2.95, the “16:Acid” value was determined as 3.03 and the “Z9-16:Ald” value amounted to 4.92. In addition, in series [1], the “16:Ald” value was 7.81 and the “Z11-16:Ald” value came to 72.73. Also, in series [2], the “suppressing acid formation and/or degradation of the aldehydes” value was “particularly efficient at suppressing acid formation and/or degradation of the aldehydes”, the Heptane amounted to 0.04, the “Z11-16:OH” value turned out to be 0.12 and the “16:Acid” value is listed as 1.87. In series [2], the OH tempo was 1.12, the “Z9-16:Ald” value worked out at 4.46, the “15-1:Ald” value was 6.82 and the “16:Ald” value worked out at 7.78. Also, the “Z11-16:Ald” value in series [2] is on record as 69.41.

As to `Cc1nnc(S)s1` [5-Methyl-1,3,4-thiadiazole-2-thiol], in series [1], the “Z11-16:OH” value came to 2.12, the “Z10-15:Ald” value is 2.74, the “16:Acid” value stood at 3.02 and the “Z9-16:Ald” value is reported as 4.69. For the same compound, in series [1], the “16:Ald” value came out at 7.81 and the “Z11-16:Ald” value turned out to be 71.97. In series [2], the “suppressing acid formation and/or degradation of the aldehydes” value was “particularly efficient at suppressing acid formation and/or degradation of the aldehydes”, the Heptane is 0.04, the “Z11-16:OH” value was determined as 0.29 and the “16:Acid” value was 1.38. Also, in series [2], the OH tempo amounted to 1.14, the “Z9-16:Ald” value is on record as 4.38, the “15-1:Ald” value is reported as 6.71 and the “16:Ald” value is 8.04. In series [2], the “Z11-16:Ald” value is given as 71.38.

In the case of `CC1(C)CC(O)CC(C)(C)N1[O]` [Additive 4-OH-TEMPO, 4-hydroxy-2,2,6,6-tetramethylpiperidin-1-oxyl], in series [1], the “Z11-16:OH” value is 1.88, the “Z10-15:Ald” value worked out at 2.69, the “16:Acid” value amounted to 4.18 and the “Z9-16:Ald” value amounted to 4.72. In series [1], the “16:Ald” value was 7.51 and the “Z11-16:Ald” value stood at 68.82. Also, in series [2], the Heptane is 0.04, the “Z11-16:OH” value was 0.19, the “16:Acid” value came out at 3.00 and the OH tempo amounted to 1.53. Further, in series [2], the “Z9-16:Ald” value worked out at 4.52, the “15-1:Ald” value was 6.54, the “16:Ald” value came to 7.60 and the “Z11-16:Ald” value is on record as 67.41.

Consider `[Na+].[O-][n+]1ccccc1[S-]` [Sodium pyrithione], for which the suppressing degradation entry in series [3] (55° C. 14 days) was “highly efficient at suppressing degradation”. Besides, the “C16:Acid” value in series [3] (after 55° C. 14 days without cap, before test 1.05, blank 17.72) is on record as 3.34. In addition, the “Z9-16:Ald” value in series [3] (after 55° C. 14 days without cap, before test 5.09, blank 3.05) was 4.20. Moreover, the “16:Ald” value in series [3] (after 55° C. 14 days without cap, before test 8.41, blank 6.60) is 8.73. Besides, the Z11-16Ald in series [3] (after 55° C. 14 days without cap, before test 75.31, blank 54.31) is reported as 76.47. Also, in series [1], the “suppressing acid formation and degradation of the aldehydes” value was “particularly efficient at suppressing acid formation and degradation of the aldehydes”; the “Z11-16:OH” value came out at 2.14; the “Z10-15:Ald” value amounted to 2.87; the “16:Acid” value came to 3.39. Besides, in series [1], the “Z9-16:Ald” value is reported as 5.18, the “16:Ald” value is 8.07 and the “Z11-16:Ald” value is reported as 74.71. Moreover, the “suppressing acid formation and/or degradation of the aldehydes” value in series [2] (55° C. 14 days) is recorded as “particularly efficient at suppressing acid formation and/or degradation of the aldehydes”. Besides, in series [2], the Heptane stood at 0.04, the “Z11-16:OH” value is given as 0.24, the “16:Acid” value came out at 1.58 and the OH tempo is recorded as 1.05. In series [2], the “Z9-16:Ald” value was 5.08, the “15-1:Ald” value was 6.71, the “16:Ald” value is 8.29 and the “Z11-16:Ald” value is listed as 74.65. Also, in series [4] (55° C. 14 days), the suppressing degradation result is on record as “particularly efficient at suppressing degradation”. Also, the “Z9-16:Ald” value in series [4] (after 55° C. 14 days without cap, before test 4.3, blank 3.066023) was 3.083. In series [4] (after 55° C. 14 days without cap, before test 6.7, blank 18.84135), the “C16:Acid” value was 8.924. Moreover, the “16:Ald” value in series [4] (after 55° C. 14 days without cap, before test 7.5, blank 6.659339) is 6.675. Moreover, in series [4] (after 55° C. 14 days without cap, before test 69.4, blank 54.83784, in % (unit assumed)), the Z11-16Ald worked out at 57.02.

For Zinc Pyrithione, in series [1], the “suppressing acid formation and degradation of the aldehydes” value is “particularly efficient at suppressing acid formation and degradation of the aldehydes”; the “Z11-16:OH” value came to 1.53; the “Z10-15:Ald” value was determined as 3.04; the “16:Acid” value was 5.28. Moreover, in series [1], the “Z9-16:Ald” value is on record as 4.44, the “16:Ald” value is recorded as 7.01 and the “Z11-16:Ald” value turned out to be 64.80. The “suppressing acid formation and/or degradation of the aldehydes” value in series [2] (55° C. 14 days) is “particularly efficient at suppressing acid formation and/or degradation of the aldehydes”. In series [2], the Heptane is recorded as 0.04, the “Z11-16:OH” value came to 0.13, the “16:Acid” value was 2.29 and the OH tempo was 1.17. In addition, in series [2], the “Z9-16:Ald” value was 4.57, the “15-1:Ald” value was 6.78, the “16:Ald” value was determined as 7.72 and the “Z11-16:Ald” value came out at 65.87.
